The values below come from patent US20080234262A1 (Wyeth, priority 2007, published 2008).

In general, IC50 refers to the point on the concentration scale where inhibition reaches its midpoint.

Where only a bound is given, the exact number is not on record here.

One test concerns the target PI3K (Homo sapiens, UniProt P42336). Description: Fluorescence polarization assay for PI3K.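 Also: PI3K kinase reaction on PIP2 with ATP, 30-60 min, product sensed by GST-GRP with red probe in fluorescence polarization (mP), controls without enzyme and at zero time.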 The test is classed as biochemical. The settings on record: PI3Kα; read-out: PI3Kα IC50. (Fluorescence polarisation rises when a labelled molecule tumbles more slowly, as on binding a larger partner.)
For a further test, the system named is prostate line LNCap. Description: In vitro cell culture growth assay (MTS), LNCap. The settings on record: Homo sapiens, LNCaP, 72 h, LNCap cells, three days after drug treatment. Type of test: cell-based, human.
Another test relates to breast line MDA468. As to the kind of experiment: In vitro cell culture growth assay (MTS), MDA468. Type of test: cell-based, human. The settings on record: Homo sapiens, 72 h, MDA468 cells, three days after drug treatment. The essentials: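 MDA468 or LNCap cells received inhibitors one day after plating and were grown for three days. Viable cell density read by MTS conversion, absorbance 490 nm, expressed as percent of control growth versus vehicle-treated cells on the same plate.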

PI3K, sequence (P42336 whole entry): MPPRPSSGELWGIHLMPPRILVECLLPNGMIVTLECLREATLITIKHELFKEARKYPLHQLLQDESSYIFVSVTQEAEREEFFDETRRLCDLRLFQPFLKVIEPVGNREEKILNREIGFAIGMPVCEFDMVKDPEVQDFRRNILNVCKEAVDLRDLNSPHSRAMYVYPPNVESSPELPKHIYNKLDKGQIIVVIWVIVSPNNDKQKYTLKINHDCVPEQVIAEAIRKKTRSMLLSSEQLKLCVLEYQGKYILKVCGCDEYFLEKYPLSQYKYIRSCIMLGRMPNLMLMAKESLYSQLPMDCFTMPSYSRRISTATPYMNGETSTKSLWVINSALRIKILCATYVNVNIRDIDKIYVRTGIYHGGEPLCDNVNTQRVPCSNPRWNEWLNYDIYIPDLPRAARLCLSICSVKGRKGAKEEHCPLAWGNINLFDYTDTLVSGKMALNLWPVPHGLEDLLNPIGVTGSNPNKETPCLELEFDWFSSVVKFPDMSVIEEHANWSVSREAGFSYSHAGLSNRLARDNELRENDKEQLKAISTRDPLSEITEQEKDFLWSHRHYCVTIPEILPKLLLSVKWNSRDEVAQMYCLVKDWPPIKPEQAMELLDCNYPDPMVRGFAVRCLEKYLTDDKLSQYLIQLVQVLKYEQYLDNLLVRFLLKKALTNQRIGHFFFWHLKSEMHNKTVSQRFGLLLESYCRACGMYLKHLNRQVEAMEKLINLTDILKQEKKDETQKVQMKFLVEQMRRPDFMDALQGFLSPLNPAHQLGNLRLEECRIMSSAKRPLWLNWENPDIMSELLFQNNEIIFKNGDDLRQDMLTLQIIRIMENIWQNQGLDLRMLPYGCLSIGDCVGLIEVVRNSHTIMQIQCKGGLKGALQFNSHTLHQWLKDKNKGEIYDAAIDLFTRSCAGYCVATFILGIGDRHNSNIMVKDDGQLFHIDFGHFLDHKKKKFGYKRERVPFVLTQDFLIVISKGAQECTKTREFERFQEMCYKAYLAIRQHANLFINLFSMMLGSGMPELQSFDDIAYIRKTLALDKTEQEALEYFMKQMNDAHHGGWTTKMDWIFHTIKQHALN
PI3K, sequence (P27986 whole entry partner): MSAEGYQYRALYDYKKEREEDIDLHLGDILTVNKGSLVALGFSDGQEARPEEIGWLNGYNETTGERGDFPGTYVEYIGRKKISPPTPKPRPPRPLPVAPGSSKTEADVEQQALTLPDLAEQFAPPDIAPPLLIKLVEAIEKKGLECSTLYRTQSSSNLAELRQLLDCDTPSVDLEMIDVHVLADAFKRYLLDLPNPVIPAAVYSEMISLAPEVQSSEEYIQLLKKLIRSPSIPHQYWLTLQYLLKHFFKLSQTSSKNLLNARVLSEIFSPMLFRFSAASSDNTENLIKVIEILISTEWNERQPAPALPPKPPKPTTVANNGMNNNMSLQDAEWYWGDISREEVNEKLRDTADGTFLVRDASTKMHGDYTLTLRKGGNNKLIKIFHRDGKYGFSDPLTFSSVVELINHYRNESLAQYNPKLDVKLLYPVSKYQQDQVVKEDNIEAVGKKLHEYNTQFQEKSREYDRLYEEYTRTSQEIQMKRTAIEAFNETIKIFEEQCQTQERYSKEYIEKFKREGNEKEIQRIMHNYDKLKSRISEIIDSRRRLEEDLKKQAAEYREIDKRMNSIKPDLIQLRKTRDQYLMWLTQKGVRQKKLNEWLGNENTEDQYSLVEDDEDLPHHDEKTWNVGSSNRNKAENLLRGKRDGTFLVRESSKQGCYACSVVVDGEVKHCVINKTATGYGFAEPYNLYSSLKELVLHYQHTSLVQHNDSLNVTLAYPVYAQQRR

As for `COC(=O)N1CCC(n2ncc3c(N4CCOCC4)nc(-c4ccc(NC(=O)OCCN5CCN(C)CC5)cc4)nc32)CC1` [Compound 907, methyl 4-{6-[4-({[2-(4-methylpiperazin-1-yl)ethoxy]carbonyl}amino)phenyl]-4-morpholin-4-yl-1H-pyrazolo[3,4-d]pyrimidin-1-yl}piperidine-1-carboxylate], the IC50 on PI3K is 1850 nM; in the test on prostate line LNCap, 5500 nM; in the test with breast line MDA468 it was 7000 nM.

With `COC(=O)N1CCC(n2ncc3c(N4CCOCC4)nc(-c4ccc(NC(=O)OCC(F)(F)F)cc4)nc32)CC1` [Compound 908, methyl 4-[4-morpholin-4-yl-6-(4-{[(2,2,2-trifluoroethoxy)carbonyl]amino}phenyl)-1H-pyrazolo[3,4-d]pyrimidin-1-yl]piperidine-1-carboxylate], the IC50 is > 10000 nM on PI3K, 1300 nM with prostate line LNCap and 17000 nM with breast line MDA468.

Regarding `COC(=O)N1CCC(n2ncc3c(N4CCOCC4)nc(-c4ccc(NC(=O)OCCCO)cc4)nc32)CC1` [Compound 909, methyl 4-[6-(4-{[(3-hydroxypropoxy)carbonyl]amino}phenyl)-4-morpholin-4-yl-1H-pyrazolo[3,4-d]pyrimidin-1-yl]piperidine-1-carboxylate], the figures for the IC50 at PI3K, in the test with prostate line LNCap and with breast line MDA468 were 7030 nM, 1200 nM and > 60000 nM, respectively.

Regarding `COC(=O)N1CCC(n2ncc3c(N4CCOCC4)nc(-c4ccc(NC(=O)Nc5ccc(N6CCOCC6)nc5)cc4)nc32)CC1` [Compound 911, methyl 4-[4-morpholin-4-yl-6-(4-{[(6-morpholin-4-ylpyridin-3-yl)carbamoyl]amino}phenyl)-1H-pyrazolo[3,4-d]pyrimidin-1-yl]piperidine-1-carboxylate], the IC50 was found to be 118 nM at PI3K, 0.8 nM with prostate line LNCap and 10 nM with breast line MDA468.

On to `COC(=O)N1CCC(n2ncc3c(N4CCOCC4)nc(-c4ccc(NC(=O)Nc5ccc(CCN6CCCCC6)cc5)cc4)nc32)CC1` [Compound 915, methyl 4-{4-morpholin-4-yl-6-[4-({[4-(2-piperidin-1-ylethyl)phenyl]carbamoyl}amino)phenyl]-1H-pyrazolo[3,4-d]pyrimidin-1-yl}piperidine-1-carboxylate], for which the values for the IC50 on PI3K, with prostate line LNCap and with breast line MDA468 were 26 nM, 0.77 nM and 25 nM, respectively.

For `COC(=O)N1CCC(n2ncc3c(N4CCOCC4)nc(-c4ccc(NC(=O)Nc5ccc(CCN6CCNCC6)cc5)cc4)nc32)CC1` [Compound 916, methyl 4-{4-morpholin-4-yl-6-[4-({[4-(2-piperazin-1-ylethyl)phenyl]carbamoyl}amino)phenyl]-1H-pyrazolo[3,4-d]pyrimidin-1-yl}piperidine-1-carboxylate], the IC50 stood at 20 nM at PI3K, 1.3 nM in the test on prostate line LNCap and 110 nM in the test with breast line MDA468.

Regarding `COC(=O)N1CCC(n2ncc3c(N4CCOCC4)nc(-c4ccc(NC(=O)Nc5ccc(CCNCCN(C)C)cc5)cc4)nc32)CC1` [Compound 919, methyl 4-{6-[4-({[4-(2-{[2-(dimethylamino)ethyl]amino}ethyl)phenyl]carbamoyl}amino)phenyl]-4-morpholin-4-yl-1H-pyrazolo[3,4-d]pyrimidin-1-yl}piperidine-1-carboxylate], the IC50 was found to be 8 nM at PI3K, 31 nM in the test on prostate line LNCap and 420 nM with breast line MDA468.

As for `COC(=O)N1CCC(n2ncc3c(N4CCOCC4)nc(-c4ccc(NC(=O)Nc5ccc(CCNCCN)cc5)cc4)nc32)CC1` [Compound 920, methyl 4-[6-(4-{[(4-{2-[(2-aminoethyl)amino]ethyl}phenyl)carbamoyl]amino}phenyl)-4-morpholin-4-yl-1H-pyrazolo[3,4-d]pyrimidin-1-yl]piperidine-1-carboxylate], the results for the IC50 at PI3K, with prostate line LNCap and with breast line MDA468 were 4 nM, 0.8 nM and 300 nM, respectively.
